# In patent publication US9695155B2, “Herbicidal substituted pyrimidinyloxy benzene compounds” (E. I. DU PONT DE NEMOURS AND COMPANY, priority 2013, dated 2017):
# Tests used:
# corn [1] = experiment: Test A postemergence; format: in vivo, Zea mays
# In short: (§1)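 Compounds in non-phytotoxic solvent with surfactant applied as soil spray preemergence, or postemergence to plants 2-10 cm at one- to two-leaf stage, in loam/sand. After approximately 10 days in greenhouse, injury rated visually versus untreated controls, 0 (no effect) to 100 (complete control).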
# velvetleaf = experiment: Test C preemergence; format: in vivo, Abutilon theophrasti; conditions: for Velvetleaf plant response rating: preemergence, scale 0 (no effect) to 100 (complete control)
# In short: (§2)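 Sown in loam/sand → sprayed pre-emergence; or grown to 1–4 leaves in peat mix → sprayed post-emergence. Same solvent/surfactant formulation both ways. Greenhouse 13–15 d. Score 0–100 visual.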
# ragweed [2] = experiment: Test C preemergence; format: in vivo, Ambrosia elatior; conditions: preemergence, scale 0 (no effect) to 100 (complete control)
# In short: as §2
# galium = experiment: Test C preemergence; format: in vivo, Galium aparine; conditions: for Galium plant response rating: preemergence, scale 0 (no effect) to 100 (complete control)
# In short: as §2
# morningglory [3] = experiment: Test C postemergence; format: in vivo, Ipomoea coccinea; conditions: for Plant response rating (0 to 100), Morningglory: postemergence; for Plant response rating, Morningglory: Postemergence, scale 0 to 100 (0 no effect, 100 complete control)
# In short: as §2
# large (Lg) crabgrass = experiment: Test C postemergence; format: in vivo, Digitaria sanguinalis; conditions: for Plant response rating (0 to 100), Crabgrass, Large: postemergence; for Plant response rating, Crabgrass, Large: Postemergence, scale 0 to 100 (0 no effect, 100 complete control)
# In short: as §2
# wheat = experiment: Test A preemergence; format: in vivo, Triticum aestivum
# In short: as §1
# waterhemp = experiment: Test C postemergence; format: in vivo, Amaranthus rudis; conditions: for Plant response rating (0 to 100), Waterhemp: postemergence; for Plant response rating, Waterhemp: Postemergence, scale 0 to 100 (0 no effect, 100 complete control)
# In short: as §2
# lambsquarters [4] = experiment: Test C postemergence; format: in vivo, Chenopodium album; conditions: for Plant response rating (0 to 100), Lambsquarters: postemergence; for Plant response rating, Lambsquarters: Postemergence, scale 0 to 100 (0 no effect, 100 complete control)
# In short: as §2
# ragweed [5] = experiment: Test C postemergence; format: in vivo, Ambrosia elatior; conditions: for Plant response rating (0 to 100), Ragweed: postemergence; for Plant response rating, Ragweed: Postemergence, scale 0 to 100 (0 no effect, 100 complete control)
# In short: as §2
# giant foxtail [6] = experiment: Test C postemergence; format: in vivo, Setaria faberii; conditions: for Plant response rating (0 to 100), Foxtail, Giant: postemergence; for Plant response rating, Foxtail, Giant: Postemergence, scale 0 to 100 (0 no effect, 100 complete control)
# In short: as §2
# pigweed [7] = experiment: Test A postemergence; format: in vivo, Amaranthus retroflexus; conditions: 0 to 100 scale where 0 is no effect and 100 is complete control
# In short: as §1
# giant foxtail [8] = experiment: Test A postemergence; format: in vivo, Setaria faberii; conditions: 0 to 100 scale where 0 is no effect and 100 is complete control
# In short: as §1
# corn [9] = experiment: Test C preemergence; format: in vivo, Zea mays; conditions: for Corn plant response rating: preemergence, scale 0 (no effect) to 100 (complete control)
# In short: as §2
# lambsquarters [10] = experiment: Test C preemergence; format: in vivo, Chenopodium album; conditions: for Lambsquarters plant response rating: preemergence, scale 0 (no effect) to 100 (complete control)
# In short: as §2
# soybean = experiment: Test C postemergence; format: in vivo, Glycine max; conditions: for Plant response rating (0 to 100), Soybean: postemergence; for Plant response rating, Soybean: Postemergence, scale 0 to 100 (0 no effect, 100 complete control)
# In short: as §2
# pigweed [11] = experiment: Test C postemergence; format: in vivo, Amaranthus retroflexus; conditions: for Plant response rating (0 to 100), Pigweed: postemergence; for Plant response rating, Pigweed: Postemergence, scale 0 to 100 (0 no effect, 100 complete control)
# In short: as §2
# morningglory [12] = experiment: Test C preemergence; format: in vivo, Ipomoea coccinea; conditions: for Morningglory plant response rating: preemergence, scale 0 (no effect) to 100 (complete control)
# In short: as §2
# [13] = 125 g ai/ha, 0 to 100 scale where 0 is no effect and 100 is complete control
# [14] = Preemergence, 31 g ai/ha, scale 0 to 100, 0 no effect, 100 complete control
compound,measurement,setting,value
N#Cc1cccc(Oc2ncc(F)cn2)c1-n1cc(Cl)cn1 [Compound 73],"Plant response rating, Corn",corn [1]; [13],40
same,"Plant response rating, Corn","corn [1]; 500 g ai/ha, 0 to 100 scale, 0 no effect, 100 complete control",80
same,Velvetleaf plant response rating,velvetleaf; 62 g ai/ha,75
same,Velvetleaf plant response rating,velvetleaf; 125 g ai/ha,100
same,Velvetleaf plant response rating,velvetleaf; 250 g ai/ha,100
same,"Plant response rating, Velvetleaf",velvetleaf; [14],60
same,Ragweed plant response rating,ragweed [2]; 62 g ai/ha,75
same,Ragweed plant response rating,ragweed [2]; 125 g ai/ha,85
same,Ragweed plant response rating,ragweed [2]; 250 g ai/ha,85
same,Galium plant response rating,galium; 62 g ai/ha,90
same,Galium plant response rating,galium; 125 g ai/ha,90
same,Galium plant response rating,galium; 250 g ai/ha,95
same,"Plant response rating, Galium",galium; [14],85
same,"Plant response rating (0 to 100), Morningglory",morningglory [3]; 125 g ai/ha,85
same,"Plant response rating (0 to 100), Morningglory",morningglory [3]; 250 g ai/ha,85
same,"Plant response rating, Morningglory","morningglory [3]; 31 g ai/ha, 13 to 15 days",65
same,"Plant response rating, Morningglory",morningglory [3]; 62 g ai/ha,65
same,"Plant response rating (0 to 100), Crabgrass, Large",large (Lg) crabgrass; 125 g ai/ha,10
same,"Plant response rating (0 to 100), Crabgrass, Large",large (Lg) crabgrass; 250 g ai/ha,20
same,"Plant response rating, Crabgrass, Large","large (Lg) crabgrass; 31 g ai/ha, 13 to 15 days",5
same,"Plant response rating, Crabgrass, Large",large (Lg) crabgrass; 62 g ai/ha,10
same,"Plant response rating, Wheat",wheat; [13],0
same,Wheat plant response rating,"wheat; 500 g ai/ha, 0 to 100 scale, 0 no effect, 100 complete control, approx. 10 days",80
same,"Plant response rating (0 to 100), Waterhemp",waterhemp; 125 g ai/ha,75
same,"Plant response rating (0 to 100), Waterhemp",waterhemp; 250 g ai/ha,90
same,"Plant response rating, Waterhemp","waterhemp; 31 g ai/ha, 13 to 15 days",50
same,"Plant response rating, Waterhemp",waterhemp; 62 g ai/ha,60
same,"Plant response rating (0 to 100), Lambsquarters",lambsquarters [4]; 125 g ai/ha,70
same,"Plant response rating (0 to 100), Lambsquarters",lambsquarters [4]; 250 g ai/ha,80
same,"Plant response rating, Lambsquarters","lambsquarters [4]; 31 g ai/ha, 13 to 15 days",25
same,"Plant response rating, Lambsquarters",lambsquarters [4]; 62 g ai/ha,55
same,"Plant response rating (0 to 100), Ragweed",ragweed [5]; 125 g ai/ha,50
same,"Plant response rating (0 to 100), Ragweed",ragweed [5]; 250 g ai/ha,65
same,"Plant response rating, Ragweed","ragweed [5]; 31 g ai/ha, 13 to 15 days",30
same,"Plant response rating, Ragweed",ragweed [5]; 62 g ai/ha,35
same,"Plant response rating (0 to 100), Foxtail, Giant",giant foxtail [6]; 125 g ai/ha,10
same,"Plant response rating (0 to 100), Foxtail, Giant",giant foxtail [6]; 250 g ai/ha,30
same,"Plant response rating, Foxtail, Giant","giant foxtail [6]; 31 g ai/ha, 13 to 15 days",0
same,"Plant response rating, Foxtail, Giant",giant foxtail [6]; 62 g ai/ha,5
same,"Plant response rating, Pigweed",pigweed [7]; 125 g ai/ha,100
same,"Plant response rating, Pigweed",pigweed [7]; 500 g ai/ha,100
same,"Plant response rating, Foxtail, Giant",giant foxtail [8]; 125 g ai/ha,90
same,"Plant response rating, Foxtail, Giant",giant foxtail [8]; 500 g ai/ha,100
same,Corn plant response rating,corn [9]; 62 g ai/ha,0
same,Corn plant response rating,corn [9]; 125 g ai/ha,5
same,Corn plant response rating,corn [9]; 250 g ai/ha,70
same,"Plant response rating, Corn",corn [9]; [14],0
same,Lambsquarters plant response rating,lambsquarters [10]; 62 g ai/ha,98
same,Lambsquarters plant response rating,lambsquarters [10]; 125 g ai/ha,98
same,Lambsquarters plant response rating,lambsquarters [10]; 250 g ai/ha,98
same,"Plant response rating, Lambsquarters",lambsquarters [10]; [14],60
same,"Plant response rating (0 to 100), Soybean",soybean; 125 g ai/ha,80
same,"Plant response rating (0 to 100), Soybean",soybean; 250 g ai/ha,90
same,"Plant response rating, Soybean","soybean; 31 g ai/ha, 13 to 15 days",40
same,"Plant response rating, Soybean",soybean; 62 g ai/ha,70
same,"Plant response rating (0 to 100), Pigweed",pigweed [11]; 125 g ai/ha,80
same,"Plant response rating (0 to 100), Pigweed",pigweed [11]; 250 g ai/ha,90
same,"Plant response rating, Pigweed","pigweed [11]; 31 g ai/ha, 13 to 15 days",45
same,"Plant response rating, Pigweed",pigweed [11]; 62 g ai/ha,70
same,Morningglory plant response rating,morningglory [12]; 62 g ai/ha,45
same,Morningglory plant response rating,morningglory [12]; 125 g ai/ha,95
same,Morningglory plant response rating,morningglory [12]; 250 g ai/ha,98
same,"Plant response rating, Morningglory",morningglory [12]; [14],45
